Test results published in patent US11427548B2 (Arvinas Operations, Inc., priority 2015, dated 2022).

Target: T1, Androgen Receptor (Homo sapiens, UniProt P10275+P40337, T878A)
T1 construct: Compounds have been evaluated in this assay in LNCaP and/or VCaP cells utilizing similar protocols; endogenous in cells; host or cells: LNCaP cells
Test: Androgen Receptor ELISA assay (PathScan AR ELISA) in LNCaP cells: AR degradation, Dmax and DC50
Format: cell-based
Settings: for DC50: concentration that caused 50% Androgen Receptor degradation; for Dmax: highest percentage of Androgen Receptor degradation

T1 sequence (P10275 whole entry T878A): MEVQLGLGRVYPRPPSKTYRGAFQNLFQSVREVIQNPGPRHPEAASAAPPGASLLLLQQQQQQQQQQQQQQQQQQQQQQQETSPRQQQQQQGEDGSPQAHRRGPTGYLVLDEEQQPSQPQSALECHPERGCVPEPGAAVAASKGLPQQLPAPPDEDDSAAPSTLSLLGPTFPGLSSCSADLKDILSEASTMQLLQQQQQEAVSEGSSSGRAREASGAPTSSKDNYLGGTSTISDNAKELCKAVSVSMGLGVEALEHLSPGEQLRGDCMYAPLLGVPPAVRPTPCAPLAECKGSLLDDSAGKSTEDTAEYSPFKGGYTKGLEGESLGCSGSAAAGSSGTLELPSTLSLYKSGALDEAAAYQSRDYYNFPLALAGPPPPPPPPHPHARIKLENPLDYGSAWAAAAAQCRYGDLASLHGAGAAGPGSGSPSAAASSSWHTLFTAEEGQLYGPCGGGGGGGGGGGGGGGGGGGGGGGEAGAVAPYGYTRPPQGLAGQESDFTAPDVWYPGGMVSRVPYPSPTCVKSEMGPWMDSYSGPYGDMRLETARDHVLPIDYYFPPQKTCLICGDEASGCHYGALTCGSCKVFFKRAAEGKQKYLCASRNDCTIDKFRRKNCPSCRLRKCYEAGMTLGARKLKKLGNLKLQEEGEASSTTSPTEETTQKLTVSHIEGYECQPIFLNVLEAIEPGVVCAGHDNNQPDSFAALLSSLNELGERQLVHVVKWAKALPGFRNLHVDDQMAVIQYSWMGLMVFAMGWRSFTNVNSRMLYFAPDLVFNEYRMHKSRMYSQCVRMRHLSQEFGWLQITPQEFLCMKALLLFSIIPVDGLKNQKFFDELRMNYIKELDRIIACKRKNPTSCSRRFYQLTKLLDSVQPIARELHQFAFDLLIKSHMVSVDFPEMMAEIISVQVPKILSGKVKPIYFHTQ
T1 sequence (P40337 whole entry): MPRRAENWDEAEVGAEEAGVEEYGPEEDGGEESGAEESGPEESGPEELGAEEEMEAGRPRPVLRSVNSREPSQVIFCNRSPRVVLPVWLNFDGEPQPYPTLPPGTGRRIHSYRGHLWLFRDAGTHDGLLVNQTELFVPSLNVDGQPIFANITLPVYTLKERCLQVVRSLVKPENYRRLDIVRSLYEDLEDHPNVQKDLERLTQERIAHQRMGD
T1 sequence (Q15369 whole entry partner): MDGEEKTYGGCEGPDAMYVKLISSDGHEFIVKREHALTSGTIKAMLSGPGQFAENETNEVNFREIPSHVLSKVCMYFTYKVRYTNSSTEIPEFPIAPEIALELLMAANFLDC
T1 sequence (Q15370 whole entry partner): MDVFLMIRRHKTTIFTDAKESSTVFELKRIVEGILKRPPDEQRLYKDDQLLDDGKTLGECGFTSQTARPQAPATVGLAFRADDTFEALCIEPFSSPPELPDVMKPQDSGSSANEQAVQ

Structure (SMILES) | DC50 | Dmax
Cc1ncsc1-c1ccc(CNC(=O)[C@@H]2C[C@@H](O)CN2C(=O)[C@@H](NC(=O)OCCOCCCOCCOc2ccc(N3C(=S)N(c4ccc(C#N)c(C(F)(F)F)c4)C(=O)C3(C)C)cc2)C(C)(C)C)cc1 [Example 239] | < 50 nM | 51 to 70%
Cc1ncsc1-c1ccc(CNC(=O)[C@@H]2C[C@@H](O)CN2C(=O)[C@@H](NC(=O)COCCOCCCOCCOc2ccc(N3C(=S)N(c4ccc(C#N)c(C(F)(F)F)c4)C(=O)C3(C)C)cc2)C(C)(C)C)cc1 [Example 240] | < 50 nM | 51 to 70%
Cc1ncsc1-c1ccc(CNC(=O)[C@@H]2C[C@@H](O)CN2C(=O)[C@H](C(C)C)N2Cc3ccccc3C2=O)c(OCCCOCCOc2ccc(N3C(=S)N(c4ccc(C#N)c(C(F)(F)F)c4)C(=O)C3(C)C)cc2)c1 [Example 241] | < 50 nM | 26 to 50%
Cc1ncsc1-c1ccc(CNC(=O)[C@@H]2C[C@@H](O)CN2C(=O)[C@@H](NC(=O)COCCOCCCOc2ccc(N3C(=S)N(c4ccc(C#N)c(C(F)(F)F)c4)C(=O)C3(C)C)cc2)C(C)(C)C)cc1 [Example 243] | 51 to 500 nM | 51 to 70%
Cc1ncsc1-c1ccc(CNC(=O)[C@@H]2C[C@@H](O)CN2C(=O)[C@@H](NC(=O)CCOCCCOc2ccc(N3C(=S)N(c4ccc(C#N)c(C(F)(F)F)c4)C(=O)C3(C)C)cc2)C(C)(C)C)cc1 [Example 244] | 51 to 500 nM | < 25%
Cc1ncsc1-c1ccc(CNC(=O)[C@@H]2C[C@@H](O)CN2C(=O)[C@@H](NC(=O)CCCOCCOCCNC(=O)c2ccc(N3C(=S)N(c4ccc(C#N)c(C(F)(F)F)c4)C(=O)C3(C)C)cc2F)C(C)(C)C)cc1 [Example 245] | > 501 nM | 26 to 50%
Cc1ncsc1-c1ccc(CNC(=O)[C@@H]2C[C@@H](O)CN2C(=O)[C@@H](NC(=O)CCCCOCCCCCOc2ccc(N3C(=S)N(c4ccc(C#N)c(C(F)(F)F)c4)C(=O)C3(C)C)cc2)C(C)(C)C)cc1 [Example 246] | 51 to 500 nM | > 71%
Cc1ncsc1-c1ccc(CNC(=O)[C@@H]2C[C@@H](O)CN2C(=O)[C@H](C(C)C)N2Cc3cc(CCCOCCOc4ccc(N5C(=S)N(c6ccc(C#N)c(C(F)(F)F)c6)C(=O)C5(C)C)cc4)ccc3C2=O)cc1 [Example 248] | 51 to 500 nM | 26 to 50%
Cc1ncsc1-c1ccc(CNC(=O)[C@@H]2C[C@@H](O)CN2C(=O)[C@@H](NC(=O)CCCCCOCCCCCOc2ccc(N3C(=S)N(c4ccc(C#N)c(C(F)(F)F)c4)C(=O)C3(C)C)cc2)C(C)(C)C)cc1 [Example 249] | 51 to 500 nM | > 71%
Cc1ncsc1-c1ccc(CNC(=O)[C@@H]2C[C@@H](O)CN2C(=O)[C@H](C(C)C)N2Cc3ccccc3C2=O)c(OCCCOCCCOc2ccc(N3C(=S)N(c4ccc(C#N)c(C(F)(F)F)c4)C(=O)C3(C)C)cc2)c1 [Example 250] | 51 to 500 nM | > 71%
Cc1ncsc1-c1ccc(CNC(=O)[C@@H]2C[C@@H](O)CN2C(=O)[C@H](C(C)C)N2Cc3cc(CCCCCOc4ccc(N5C(=S)N(c6ccc(C#N)c(C(F)(F)F)c6)C(=O)C5(C)C)cc4)ccc3C2=O)cc1 [Example 251] | 51 to 500 nM | 51 to 70%
Cc1ncsc1-c1ccc(CNC(=O)[C@@H]2C[C@@H](O)CN2C(=O)[C@H](C(C)C)N2Cc3cc(CCCCOCCOc4ccc(N5C(=S)N(c6ccc(C#N)c(C(F)(F)F)c6)C(=O)C5(C)C)cc4)ccc3C2=O)cc1 [Example 252] | 51 to 500 nM | 51 to 70%
Cc1ncsc1-c1ccc(CNC(=O)[C@@H]2C[C@@H](O)CN2C(=O)[C@@H](NC(=O)COCCCOCCOCCOc2ccc(N3C(=S)N(c4ccc(C#N)c(C(F)(F)F)c4)C(=O)C3(C)C)cc2)C(C)(C)C)cc1 [Example 253] | 51 to 500 nM | 51 to 70%
Cc1ncsc1-c1ccc(CNC(=O)[C@@H]2C[C@@H](O)CN2C(=O)[C@H](C(C)C)N2Cc3ccccc3C2=O)c(OCCCOc2ccc(N3C(=S)N(c4ccc(C#N)c(C(F)(F)F)c4)C(=O)C3(C)C)cc2)c1 [Example 254] | 51 to 500 nM | 51 to 70%
Cc1ncsc1-c1ccc(CNC(=O)[C@@H]2C[C@@H](O)CN2C(=O)[C@@H](NC(=O)COCCCCOCCCCCOc2ccc(N3C(=S)N(c4ccc(C#N)c(C(F)(F)F)c4)C(=O)C3(C)C)cc2)C(C)(C)C)cc1 [Example 255] | 51 to 500 nM | > 71%
Cc1ncsc1-c1ccc(CNC(=O)[C@@H]2C[C@@H](O)CN2C(=O)[C@H](C(C)C)N2Cc3ccccc3C2=O)c(OCCCCOc2ccc(N3C(=S)N(c4ccc(C#N)c(C(F)(F)F)c4)C(=O)C3(C)C)cc2)c1 [Example 256] | 51 to 500 nM | 51 to 70%
Cc1ncsc1-c1ccc(CNC(=O)[C@@H]2C[C@@H](O)CN2C(=O)[C@@H](NC(=O)c2ccc(OCCCCOc3ccc(N4C(=S)N(c5ccc(C#N)c(C(F)(F)F)c5)C(=O)C4(C)C)cc3)cc2)C(C)(C)C)cc1 [Example 257] | 51 to 500 nM | 26 to 50%
Cc1ncsc1-c1ccc(CNC(=O)[C@@H]2C[C@@H](O)CN2C(=O)[C@@H](NC(=O)c2ccc(OCCCCCOc3ccc(N4C(=S)N(c5ccc(C#N)c(C(F)(F)F)c5)C(=O)C4(C)C)cc3)cc2)C(C)(C)C)cc1 [Example 258] | 51 to 500 nM | 26 to 50%

Structure (SMILES) | DC50 | Dmax
Cc1ncsc1-c1ccc(CNC(=O)[C@@H]2C[C@@H](O)CN2C(=O)[C@@H](NC(=O)CCCCOc2ccc(CCCOc3ccc(N4C(=S)N(c5ccc(C#N)c(C(F)(F)F)c5)C(=O)C4(C)C)cc3)cc2)C(C)(C)C)cc1 [Example 259] | 51 to 500 nM | > 71%
Cc1ncsc1-c1ccc(CNC(=O)[C@@H]2C[C@@H](O)CN2C(=O)[C@H](C(C)C)N2Cc3ccccc3C2=O)c(OCCOc2ccc(N3C(=S)N(c4ccc(C#N)c(C(F)(F)F)c4)C(=O)C3(C)C)cc2)c1 [Example 261] | 51 to 500 nM | < 25%
Cc1ncsc1-c1ccc(CNC(=O)[C@@H]2C[C@@H](O)CN2C(=O)[C@@H](NC(=O)COCCOCCCOCCCOc2ccc(N3C(=S)N(c4ccc(C#N)c(C(F)(F)F)c4)C(=O)C3(C)C)cc2)C(C)(C)C)cc1 [Example 262] | 51 to 500 nM | 26 to 50%
Cc1ncsc1-c1ccc(CNC(=O)[C@@H]2C[C@@H](O)CN2C(=O)[C@@H](NC(=O)c2ccc(OCCOCCCCOc3ccc(N4C(=S)N(c5ccc(C#N)c(C(F)(F)F)c5)C(=O)C4(C)C)cc3)cc2)C(C)(C)C)cc1 [Example 263] | 51 to 500 nM | 26 to 50%
Cc1ncsc1-c1ccc(CNC(=O)[C@@H]2C[C@@H](O)CN2C(=O)[C@@H](NC(=O)c2ccc(OCCOCCOc3ccc(N4C(=S)N(c5ccc(C#N)c(C(F)(F)F)c5)C(=O)C4(C)C)cc3)cc2)C(C)(C)C)cc1 [Example 264] | 51 to 500 nM | < 25%
Cc1ncsc1-c1ccc(CNC(=O)[C@@H]2C[C@@H](O)CN2C(=O)[C@@H](NC(=O)c2ccc(OCCCOc3ccc(N4C(=S)N(c5ccc(C#N)c(C(F)(F)F)c5)C(=O)C4(C)C)cc3)cc2)C(C)(C)C)cc1 [Example 265] | 51 to 500 nM | < 25%
CC(=O)N[C@H](C(=O)N1C[C@H](O)C[C@H]1C(=O)NCc1ccc(-c2scnc2C)cc1OCCOCCOCCOc1ccc(N2C(=S)N(c3ccc(C#N)c(C(F)(F)F)c3)C(=O)C2(C)C)cc1)C(C)(C)C [Example 266] | 51 to 500 nM | 51 to 70%
CCC(=O)N[C@H](C(=O)N1C[C@H](O)C[C@H]1C(=O)NCc1ccc(-c2scnc2C)cc1OCCOCCOCCOc1ccc(N2C(=S)N(c3ccc(C#N)c(C(F)(F)F)c3)C(=O)C2(C)C)cc1)C(C)(C)C [Example 267] | 51 to 500 nM | 51 to 70%
CCC(=O)N[C@H](C(=O)N1C[C@H](O)C[C@H]1C(=O)NCc1ccc(-c2scnc2C)cc1OCCOCCOCCOc1ccc(N2C(=O)N(c3ccc(C#N)c(C(F)(F)F)c3)C(=O)C2(C)C)cc1)C(C)(C)C [Example 268] | > 501 nM | 51 to 70%
Cc1ncsc1-c1ccc(CNC(=O)[C@@H]2C[C@@H](O)CN2C(=O)[C@@H](NC(=O)C(C)C)C(C)(C)C)c(OCCOCCOCCOc2ccc(N3C(=S)N(c4ccc(C#N)c(C(F)(F)F)c4)C(=O)C3(C)C)cc2)c1 [Example 269] | > 501 nM | 51 to 70%
Cc1ncsc1-c1ccc(CNC(=O)[C@@H]2C[C@@H](O)CN2C(=O)[C@@H](NC(=O)C(C)(C)C)C(C)(C)C)c(OCCOCCOCCOc2ccc(N3C(=S)N(c4ccc(C#N)c(C(F)(F)F)c4)C(=O)C3(C)C)cc2)c1 [Example 270] | 51 to 500 nM | 51 to 70%
CC(=O)NCC(=O)N1C[C@H](O)C[C@H]1C(=O)NCc1ccc(-c2scnc2C)cc1OCCOCCOCCOc1ccc(N2C(=S)N(c3ccc(C#N)c(C(F)(F)F)c3)C(=O)C2(C)C)cc1 [Example 271] | > 501 nM | 26 to 50%
CC(=O)N[C@@H](C)C(=O)N1C[C@H](O)C[C@H]1C(=O)NCc1ccc(-c2scnc2C)cc1OCCOCCOCCOc1ccc(N2C(=S)N(c3ccc(C#N)c(C(F)(F)F)c3)C(=O)C2(C)C)cc1 [Example 272] | > 501 nM | < 25%
Cc1ncsc1-c1ccc(CNC(=O)[C@@H]2C[C@@H](O)CN2C(=O)[C@H](C(C)C)N2Cc3cc(CCCCOCCCOc4ccc(N5C(=S)N(c6ccc(C#N)c(C(F)(F)F)c6)C(=O)C5(C)C)cc4)ccc3C2=O)cc1 [Example 273] | > 501 nM | 26 to 50%
Cc1ncsc1-c1ccc(CNC(=O)[C@@H]2C[C@@H](O)CN2C(=O)[C@@H](NC(=O)c2ccc(OCCOCCCOc3ccc(N4C(=S)N(c5ccc(C#N)c(C(F)(F)F)c5)C(=O)C4(C)C)cc3)cc2)C(C)(C)C)cc1 [Example 274] | 51 to 500 nM | 26 to 50%
Cc1ncsc1-c1ccc(CNC(=O)[C@@H]2C[C@@H](O)CN2C(=O)[C@@H](NC(=O)c2ccccc2OCCCOc2ccc(N3C(=S)N(c4ccc(C#N)c(C(F)(F)F)c4)C(=O)C3(C)C)cc2)C(C)(C)C)cc1 [Example 275] | > 501 nM | < 25%
Cc1ncsc1-c1ccc(CNC(=O)[C@@H]2C[C@@H](O)CN2C(=O)[C@@H](NC(=O)c2ccccc2OCCCCOc2ccc(N3C(=S)N(c4ccc(C#N)c(C(F)(F)F)c4)C(=O)C3(C)C)cc2)C(C)(C)C)cc1 [Example 276] | > 501 nM | < 25%
Cc1ncsc1-c1ccc(CNC(=O)[C@@H]2C[C@@H](O)CN2C(=O)[C@@H](NC(=O)c2cccc(OCCCOc3ccc(N4C(=S)N(c5ccc(C#N)c(C(F)(F)F)c5)C(=O)C4(C)C)cc3)c2)C(C)(C)C)cc1 [Example 277] | 51 to 500 nM | < 25%
